From patent US12679843B2, “Pyrrolopyrimidine amines as complement inhibitors” (BioCryst Pharmaceuticals, Inc., priority 2020, dated 2026)

target: Factor D (Homo sapiens, UniProt P00746); assay: Factor D esterolytic assay (Z-Lys-SBzl thioester substrate, DTNB, 405 nm); type: biochemical; settings: substrate Z-Lys-SBzl 1.29 mM, 100 mM HEPES, 500 mM NaCl, pH 7.5, 10% DMSO, tested a minimum of three times
How it was run: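 Run in pH 7.5 HEPES (100 mM) with 500 mM NaCl and 10% DMSO, with compound preincubated at room temperature or not before adding 1.29 mM Z-Lys-SBzl. Free thiol released by Factor D reacts with DTNB, and rate is followed at 405 nm minus 690 nm over 600 s. IC50 derives from rate-based inhibition, minimum three replicates.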

Chain of Factor D (P00746 26-253): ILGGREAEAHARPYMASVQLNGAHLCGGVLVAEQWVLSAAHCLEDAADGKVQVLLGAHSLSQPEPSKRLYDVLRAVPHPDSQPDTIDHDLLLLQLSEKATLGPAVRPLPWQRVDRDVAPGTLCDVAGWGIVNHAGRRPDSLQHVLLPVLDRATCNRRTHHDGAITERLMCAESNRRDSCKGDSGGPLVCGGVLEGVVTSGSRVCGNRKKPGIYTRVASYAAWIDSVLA

**Q.** For `COc1cc(F)cc2c3c(N)ncnc3n(CC(=O)N3[C@H](C(=O)Nc4cccc(Br)n4)C[C@@]4(C)C[C@@H]34)c12` [Compound 281a, (1R,3S,5R)-2-(2-(4-amino-6-fluoro-8-methoxy-9H-pyrimido[4,5-b]indol-9-yl)acetyl)-N-(6-bromopyridin-2-yl)-5-methyl-2-azabicyclo[3.1.0]hexane-3-carboxamide], which IC50 is on record?
**A.** < 100 nM

**Q.** How did the IC50 turn out when `Cc1cc(O)cc2c3c(N)ncnc3n(CC(=O)N3[C@@H]4C[C@@H]4C[C@H]3C(=O)Nc3cccc(Br)n3)c12` [Compound 282a, (1R,3S,5R)-2-(2-(4-amino-6-hydroxy-8-methyl-9H-pyrimido[4,5-b]indol-9-yl)acetyl)-N-(6-bromopyridin-2-yl)-2-azabicyclo[3.1.0]hexane-3-carboxamide] was run?
**A.** < 100 nM

**Q.** `Cc1ccnc2c3c(N)ncnc3n(CC(=O)N3[C@H](C(=O)Nc4cccc(Br)n4)C[C@@]4(C)C[C@@H]34)c12` [Compound 283g, (1R,3S,5R)-2-(2-(4-amino-8-methyl-9H-pyrido[2′,3′:4,5]pyrrolo[2,3-d]pyrimidin-9-yl)acetyl)-N-(6-bromopyridin-2-yl)-5-methyl-2-azabicyclo[3.1.0]hexane-3-carboxamide] was tested. Which IC50 did it give?
**A.** < 100 nM

**Q.** How did the IC50 turn out when `Cc1ccnc2c3c(N)ncnc3n(CC(=O)N3[C@@H]4C[C@@H]4C[C@H]3C(=O)Nc3cccc(Br)n3)c12` [Compound 284a, (1R,3S,5R)-2-(2-(4-amino-8-methyl-9H-pyrido[2′,3′:4,5]pyrrolo[2,3-d]pyrimidin-9-yl)acetyl)-N-(6-bromopyridin-2-yl)-2-azabicyclo[3.1.0]hexane-3-carboxamide] was run?
**A.** < 100 nM

**Q.** Which IC50 does the source give for `Cc1ccc2c(n1)c1c(N)ncnc1n2CC(=O)N1[C@@H]2C[C@@H]2C[C@H]1C(=O)Nc1cccc(Br)n1` [Compound 285g, (1R,3S,5R)-2-(2-(4-amino-6-methyl-9H-pyrido[2′,3′:4,5]pyrrolo[2,3-d]pyrimidin-9-yl)acetyl)-N-(6-bromopyridin-2-yl)-2-azabicyclo[3.1.0]hexane-3-carboxamide] here?
**A.** < 100 nM

**Q.** With `Cc1ccc2c(n1)c1c(N)ncnc1n2CC(=O)N1[C@H](C(=O)Nc2cccc(Br)n2)C[C@@]2(C)C[C@@H]12` [Compound 286a, (1R,3S,5R)-2-(2-(4-amino-6-methyl-9H-pyrido[2′,3′:4,5]pyrrolo[2,3-d]pyrimidin-9-yl)acetyl)-N-(6-bromopyridin-2-yl)-5-methyl-2-azabicyclo[3.1.0]hexane-3-carboxamide] as the compound, how does the IC50 read?
**A.** < 100 nM

**Q.** For `Cc1cc(C(F)(F)F)cc2c3c(N)ncnc3n(CC(=O)N3[C@H](C(=O)Nc4cccc(Cl)n4)C[C@@]4(C)C[C@@H]34)c12` [Compound 287a, (1R,3S,5R)-2-(2-(4-amino-8-methyl-6-(trifluoromethyl)-9H-pyrimido[4,5-b]indol-9-yl)acetyl)-N-(6-chloropyridin-2-yl)-5-methyl-2-azabicyclo[3.1.0]hexane-3-carboxamide], which IC50 is on record?
**A.** < 100 nM

**Q.** Which IC50 does the source give for `Cc1cc(-c2cccnc2)cc2c3c(N)ncnc3n(CC(=O)N3[C@@H]4C[C@@H]4C[C@H]3C(=O)Nc3cccc(Br)n3)c12` [Compound 288c, (1R,3S,5R)-2-(2-(4-amino-8-methyl-6-(pyridin-3-yl)-9H-pyrimido[4,5-b]indol-9-yl)acetyl)-N-(6-bromopyridin-2-yl)-2-azabicyclo[3.1.0]hexane-3-carboxamide] here?
**A.** < 100 nM

**Q.** Which IC50 does the source give for `Cc1cc(-c2cccnc2)cc2c3c(N)ncnc3n(CC(=O)N3[C@H](C(=O)Nc4cccc(Br)n4)C[C@@]4(C)C[C@@H]34)c12` [Compound 289a, (1R,3S,5R)-2-(2-(4-amino-8-methyl-6-(pyridin-3-yl)-9H-pyrimido[4,5-b]indol-9-yl)acetyl)-N-(6-bromopyridin-2-yl)-5-methyl-2-azabicyclo[3.1.0]hexane-3-carboxamide] here?
**A.** < 100 nM

**Q.** Which IC50 does the source give for `Nc1ncnc2c1c1nc(Br)ccc1n2CC(=O)N1[C@@H]2C[C@@H]2C[C@H]1C(=O)Nc1cccc(Br)n1` [Compound 290g, (1R,3S,5R)-2-(2-(4-amino-6-bromo-9H-pyrido[2′,3′:4,5]pyrrolo[2,3-d]pyrimidin-9-yl)acetyl)-N-(6-bromopyridin-2-yl)-2-azabicyclo[3.1.0]hexane-3-carboxamide] here?
**A.** < 100 nM

**Q.** With `Cc1cc(C(F)(F)F)cc2c3c(N)ncnc3n(CC(=O)N3[C@@H]4C[C@@H]4C[C@H]3C(=O)Nc3cccc(Cl)n3)c12` [Compound 291a, (1R,3S,5R)-2-(2-(4-amino-8-methyl-6-(trifluoromethyl)-9H-pyrimido[4,5-b]indol-9-yl)acetyl)-N-(6-chloropyridin-2-yl)-2-azabicyclo[3.1.0]hexane-3-carboxamide] as the compound, how does the IC50 read?
**A.** < 100 nM

**Q.** How did the IC50 turn out when `C[C@@]12C[C@@H](C(=O)Nc3cccc(Br)n3)N(C(=O)Cn3c4ccc(Br)nc4c4c(N)ncnc43)[C@@H]1C2` [Compound 292a, (1R,3S,5R)-2-(2-(4-amino-6-bromo-9H-pyrido[2′,3′:4,5]pyrrolo[2,3-d]pyrimidin-9-yl)acetyl)-N-(6-bromopyridin-2-yl)-5-methyl-2-azabicyclo[3.1.0]hexane-3-carboxamide] was run?
**A.** < 100 nM

**Q.** With `Nc1ncnc2ccc(CC(=O)N3C[C@H](F)C[C@H]3C(=O)NCc3cccc(Cl)c3F)cc12` [Compound 294c, (2S,4R)-1-(2-(4-aminoquinazolin-6-yl)acetyl)-N-(3-chloro-2-fluorobenzyl)-4-fluoropyrrolidine-2-carboxamide] as the compound, how does the IC50 read?
**A.** > 1000 nM

**Q.** With `Cc1cc(C(F)(F)F)cc2c3c(N)ncnc3n(CC(=O)N3[C@@H]4C[C@@H]4C[C@H]3C(=O)Nc3cncc(Br)n3)c12` [Compound 295a, (1R,3S,5R)-2-(2-(4-amino-8-methyl-6-(trifluoromethyl)-9H-pyrimido[4,5-b]indol-9-yl)acetyl)-N-(6-bromopyrazin-2-yl)-2-azabicyclo[3.1.0]hexane-3-carboxamide] as the compound, how does the IC50 read?
**A.** < 100 nM

**Q.** `Cc1cc(C(F)(F)F)cc2c3c(N)ncnc3n(CC(=O)N3[C@H](C(=O)Nc4cncc(Br)n4)C[C@@]4(C)C[C@@H]34)c12` [Compound 296a, (1R,3S,5R)-2-(2-(4-amino-8-methyl-6-(trifluoromethyl)-9H-pyrimido[4,5-b]indol-9-yl)acetyl)-N-(6-bromopyrazin-2-yl)-5-methyl-2-azabicyclo[3.1.0]hexane-3-carboxamide] was tested. Which IC50 did it give?
**A.** < 100 nM

**Q.** How did the IC50 turn out when `CNC(=O)Nc1ccc2c(c1)c1c(N)ncnc1n2CC(=O)N1[C@@H]2C[C@@H]2C[C@H]1C(=O)Nc1cccc(Br)n1` [Compound 297d, (1R,3S,5R)-2-(2-(4-amino-6-(3-methylureido)-9H-pyrimido[4,5-b]indol-9-yl)acetyl)-N-(6-bromopyridin-2-yl)-2-azabicyclo[3.1.0]hexane-3-carboxamide] was run?
**A.** < 100 nM

**Q.** For `Nc1ncnc2c1c1nc(-c3ccccc3)ccc1n2CC(=O)N1[C@@H]2C[C@@H]2C[C@H]1C(=O)Nc1cccc(Br)n1` [Compound 298c, (1R,3S,5R)-2-(2-(4-amino-6-phenyl-9H-pyrido[2′,3′:4,5]pyrrolo[2,3-d]pyrimidin-9-yl)acetyl)-N-(6-bromopyridin-2-yl)-2-azabicyclo[3.1.0]hexane-3-carboxamide], which IC50 is on record?
**A.** < 100 nM

**Q.** For `C[C@@]12C[C@@H](C(=O)Nc3cccc(Br)n3)N(C(=O)Cn3c4ccc(-c5ccccc5)nc4c4c(N)ncnc43)[C@@H]1C2` [Compound 299a, (1R,3S,5R)-2-(2-(4-amino-6-phenyl-9H-pyrido[2′,3′:4,5]pyrrolo[2,3-d]pyrimidin-9-yl)acetyl)-N-(6-bromopyridin-2-yl)-5-methyl-2-azabicyclo[3.1.0]hexane-3-carboxamide], which IC50 is on record?
**A.** < 100 nM

**Q.** For `Cc1cc(C(F)(F)F)cc2c3c(N)ncnc3n(CC(=O)N3C[C@H](F)C[C@H]3C(=O)Nc3cccc(Cl)n3)c12` [Compound 300a, (2S,4R)-1-(2-(4-amino-8-methyl-6-(trifluoromethyl)-9H-pyrimido[4,5-b]indol-9-yl)acetyl)-N-(6-chloropyridin-2-yl)-4-fluoropyrrolidine-2-carboxamide], which IC50 is on record?
**A.** < 100 nM

**Q.** How did the IC50 turn out when `Cc1cc(C(F)(F)F)cc2c3c(N)ncnc3n(CC(=O)N3C[C@H](F)C[C@H]3C(=O)Nc3cccc(Br)n3)c12` [Compound 301a, (2S,4R)-1-(2-(4-amino-8-methyl-6-(trifluoromethyl)-9H-pyrimido[4,5-b]indol-9-yl)acetyl)-N-(6-bromopyridin-2-yl)-4-fluoropyrrolidine-2-carboxamide] was run?
**A.** < 100 nM

**Q.** For `Cc1ccc(Br)nc1NC(=O)[C@@H]1C[C@@]2(C)C[C@H]2N1C(=O)Cn1c2ncnc(N)c2c2cc(C(F)(F)F)cc(C)c21` [Compound 302a, (1R,3S,5R)-2-(2-(4-amino-8-methyl-6-(trifluoromethyl)-9H-pyrimido[4,5-b]indol-9-yl)acetyl)-N-(6-bromo-3-methylpyridin-2-yl)-5-methyl-2-azabicyclo[3.1.0]hexane-3-carboxamide], which IC50 is on record?
**A.** < 100 nM

**Q.** `Cc1ccc(Br)nc1NC(=O)[C@@H]1C[C@H]2C[C@H]2N1C(=O)Cn1c2ncnc(N)c2c2cc(C(F)(F)F)cc(C)c21` [Compound 303a, (1R,3S,5R)-2-(2-(4-amino-8-methyl-6-(trifluoromethyl)-9H-pyrimido[4,5-b]indol-9-yl)acetyl)-N-(6-bromo-3-methylpyridin-2-yl)-2-azabicyclo[3.1.0]hexane-3-carboxamide] was tested. Which IC50 did it give?
**A.** < 100 nM

**Q.** `Cc1cc(C(F)(F)F)cc2c3c(N)ncnc3n(CC(=O)N3C[C@](C)(F)C[C@H]3C(=O)Nc3cccc(Br)n3)c12` [Compound 304a, (2S,4R)-1-(2-(4-amino-8-methyl-6-(trifluoromethyl)-9H-pyrimido[4,5-b]indol-9-yl)acetyl)-N-(6-bromopyridin-2-yl)-4-fluoro-4-methylpyrrolidine-2-carboxamide] was tested. Which IC50 did it give?
**A.** < 100 nM

**Q.** How did the IC50 turn out when `Cc1cc(C(F)(F)F)cc2c3c(N)ncnc3n(CC(=O)N3C[C@](C)(F)C[C@H]3C(=O)Nc3cncc(Br)n3)c12` [Compound 305a, (2S,4R)-1-(2-(4-amino-8-methyl-6-(trifluoromethyl)-9H-pyrimido[4,5-b]indol-9-yl)acetyl)-N-(6-bromopyrazin-2-yl)-4-fluoro-4-methylpyrrolidine-2-carboxamide] was run?
**A.** < 100 nM
